Data published in US8846698B2, “Pyrrolo[2,3-d]pyrimidine tropomysin-related kinase inhibitors” (Pfizer Limited, priority 2011, dated 2014).
pIC50: −log10 of the molar value.

Target: TRKA (Homo sapiens (Human), UniProt P04629)
Assay: Isolated TRK enzyme assay (HTRF KinEASE-TK), TRKA
Assay type: biochemical
Conditions: read-out: Trka enzyme (IC50)

Sequence of TRKA (P04629 441-796): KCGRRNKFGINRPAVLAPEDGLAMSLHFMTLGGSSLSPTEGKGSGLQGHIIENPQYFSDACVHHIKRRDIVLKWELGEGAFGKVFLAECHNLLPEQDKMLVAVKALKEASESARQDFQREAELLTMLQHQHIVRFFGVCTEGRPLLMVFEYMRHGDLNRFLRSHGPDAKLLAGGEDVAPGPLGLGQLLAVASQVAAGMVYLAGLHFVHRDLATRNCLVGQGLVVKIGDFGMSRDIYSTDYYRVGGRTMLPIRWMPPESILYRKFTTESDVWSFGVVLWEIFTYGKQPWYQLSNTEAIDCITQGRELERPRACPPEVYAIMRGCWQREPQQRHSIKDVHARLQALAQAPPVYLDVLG

| SMILES | pIC50 |
| --- | --- |
| O=C(Cc1ccc(Cl)cn1)Nc1cncc(C(=O)c2cn(C3(CO)CC3)c3ncncc23)c1 [Example 523, 2-(5-Chloro-pyridin-2-yl)-N-{5-[7-(1-hydroxymethyl-cyclopropyl)-7H-pyrrolo[2,3-d]pyrimidine-5-carbonyl]-pyridin-3-yl}-acetamide] | 7.94 |
| CC(C)n1ncc(CC(=O)Nc2cncc(C(=O)c3cn([C@H](C)CO)c4ncncc34)c2)c1C(F)(F)F [Example 207, N-[5-({7-[(1R)-2-hydroxy-1-methylethyl]-7H-pyrrolo[2,3-d]pyrimidin-5-yl}carbonyl)pyridin-3-yl]-2-[1-isopropyl-5-(trifluoromethyl)-1H-pyrazol-4-yl]acetamide] | 6.96 |
| CC(C)n1cc(C(=O)c2cncc(NC(=O)c3cc4cc(F)cnc4[nH]3)c2)c2cncnc21 [Example 399, 5-Fluoro-1H-pyrrolo[2,3-b]pyridine-2-carboxylic acid [5-(7-isopropyl-7H-pyrrolo[2,3-d]pyrimidine-5-carbonyl)-pyridin-3-yl]-amide] | 6.82 |
| CC(C)n1cc(C(=O)c2cncc(NC(=O)c3cnnc4ccccc34)c2)c2cncnc21 [Example 426, Cinnoline-4-carboxylic acid [5-(7-isopropyl-7H-pyrrolo[2,3-d]pyrimidine-5-carbonyl)-pyridin-3-yl]-amide] | 6.64 |
| CC(C)c1cn(CC(=O)Nc2cncc(C(=O)c3cn(C(C)C)c4ncncc34)c2)nn1 [Example 105, N-{5-[(7-isopropyl-7H-pyrrolo[2,3-d]pyrimidin-5-yl)carbonyl]pyridin-3-yl}-2-(4-isopropyl-1H-1,2,3-triazol-1-yl)acetamide] | 7.59 |
| CC(C)n1cc(C(=O)c2cncc(NC(=O)Cc3cncc(OC4CC4)c3)c2)c2cncnc21 [Example 91, 2-[5-(cyclopropyloxy)pyridin-3-yl]-N-{5-[(7-isopropyl-7H-pyrrolo[2,3-d]pyrimidin-5-yl)carbonyl]pyridin-3-yl}acetamide] | 5.99 |
| CC(C)n1cc(C(=O)c2cncc(NC(=O)Cc3cccc(CN4CC(F)C4)c3)c2)c2cncnc21 [Example 267, 2-{3-[(3-fluoroazetidin-1-yl)methyl]phenyl}-N-{5-[(7-isopropyl-7H-pyrrolo[2,3-d]pyrimidin-5-yl)carbonyl]pyridin-3-yl}acetamide] | 5.67 |
| CC(C)n1cc(C(=O)c2cncc(NC(=O)c3cc4ccccc4[nH]3)c2)c2cncnc21 [Example 383, 1H-Indole-2-carboxylic acid [5-(7-isopropyl-7H-pyrrolo[2,3-d]pyrimidine-5-carbonyl)-pyridin-3-yl]-amide] | 6.89 |
| Cn1cc(C(=O)c2cncc(NC(=O)Cc3ccc(SC(F)(F)F)cc3)c2)c2cncnc21 [Example 182, N-{5-[(7-methyl-7H-pyrrolo[2,3-d]pyrimidin-5-yl)carbonyl]pyridin-3-yl}-2-{4-[(trifluoromethyl)thio]phenyl}acetamide] | 6.27 |
| Cn1cc(C(=O)c2cncc(NC(=O)Cc3ccccc3C(F)(F)F)c2)c2cncnc21 [Example 169, N-{5-[(7-methyl-7H-pyrrolo[2,3-d]pyrimidin-5-yl)carbonyl]pyridin-3-yl}-2-[2-(trifluoromethyl)phenyl]acetamide] | 5.51 |
| CC(C)n1cc(C(=O)c2cncc(NC(=O)c3ccnnc3)c2)c2cncnc21 [Example 509, Pyridazine-4-carboxylic acid [5-(7-isopropyl-7H-pyrrolo[2,3-d]pyrimidine-5-carbonyl)-pyridin-3-yl]-amide] | 5.01 |
| CC(C)n1cc(C(=O)c2cncc(NC(=O)Cc3cn(C)c4ccccc34)c2)c2cncnc21 [Example 136, N-{5-[(7-isopropyl-7H-pyrrolo[2,3-d]pyrimidin-5-yl)carbonyl]pyridin-3-yl}-2-(1-methyl-1H-indol-3-yl)acetamide] | 6.48 |
| CC(C)n1cc(C(=O)c2cncc(NC(=O)c3ccc4cnnc-4[nH]3)c2)c2cncnc21 [Example 506, Pyrazolo[3,4-b]pyridine-6-carboxylic acid [5-(7-isopropyl-7H-pyrrolo[2,3-d]pyrimidine-5-carbonyl)-pyridin-3-yl]-amide] | 7.17 |
| CC(C)n1cc(C(=O)c2cncc(NC(=O)Cn3nnc4ccccc43)c2)c2cncnc21 [Example 135, 2-(1H-benzotriazol-1-yl)-N-{5-[(7-isopropyl-7H-pyrrolo[2,3-d]pyrimidin-5-yl)carbonyl]pyridin-3-yl}acetamide] | 6.51 |
| O=C(CN1Cc2ccccc2C1=O)Nc1cncc(C(=O)c2cn(C3COC3)c3ncncc23)c1 [Example 224, N-{5-[(7-oxetan-3-yl-7H-pyrrolo[2,3-d]pyrimidin-5-yl)carbonyl]pyridin-3-yl}-2-(1-oxo-1,3-dihydro-2H-isoindol-2-yl)acetamide] | 5.51 |
| CC(C)n1cc(C(=O)c2cncc(NC(=O)c3cccc(C4(C(F)(F)F)N=N4)c3)c2)c2cncnc21 [Example 290, N-{5-[(7-isopropyl-7H-pyrrolo[2,3-d]pyrimidin-5-yl)carbonyl]pyridin-3-yl}-3-[3-(trifluoromethyl)-3H-diaziren-3-yl]benzamide] | 6.78 |

| SMILES | pIC50 |
| --- | --- |
| Cc1c(Cl)c(C(=O)Nc2cncc(C(=O)c3cn(C(C)C)c4ncncc34)c2)nn1C [Example 443, 4-Chloro-1,5-dimethyl-1H-pyrazole-3-carboxylic acid [5-(7-isopropyl-7H-pyrrolo[2,3-d]pyrimidine-5-carbonyl)-pyridin-3-yl]amide] | 7.32 |
| COc1ccc2ncc(C(=O)Nc3cncc(C(=O)c4cn(C(C)C)c5ncncc45)c3)cc2c1 [Example 449, 6-Methoxy-quinoline-3-carboxylic acid [5-(7-isopropyl-7H-pyrrolo[2,3-d]pyrimidine-5-carbonyl)-pyridin-3-yl]-amide] | 6.81 |
| CC(CO)n1cc(C(=O)c2cncc(NC(=O)Cc3ccc(C#N)cc3)c2)c2cnc(N)nc21 (single isomer, unassigned) [Example 212, N-(5-{[2-amino-7-(2-hydroxy-1-methylethyl)-7H-pyrrolo[2,3-d]pyrimidin-5-yl]carbonyl}pyridin-3-yl)-2-(4-cyanophenyl)acetamide] | 7.23 |
| CC(C)n1cc(C(=O)c2cncc(NC(=O)Cc3cccc(CO)c3)c2)c2cncnc21 [Example 75, 2-[3-(hydroxymethyl)phenyl]-N-{5-[(7-isopropyl-7H-pyrrolo[2,3-d]pyrimidin-5-yl)carbonyl]pyridin-3-yl}acetamide] | 6.25 |
| O=C(Cn1ccc(C(F)(F)F)n1)Nc1cncc(C(=O)c2cn(C3(CO)CC3)c3ncncc23)c1 [Example 525, N-{5-[7-(1-Hydroxymethyl-cyclopropyl)-7H-pyrrolo[2,3-d]pyrimidine-5-carbonyl]-pyridin-3-yl}-2-(3-trifluoromethyl-pyrazol-1-yl)-acetamide] | 8.02 |
| Cc1cncc(C(=O)Nc2cncc(C(=O)c3cn(C(C)C)c4ncncc34)c2)n1 [Example 464, 6-Methyl-pyrazine-2-carboxylic acid[5-(7-isopropyl-7H-pyrrolo[2,3-d]pyrimidine-5-carbonyl)-pyridin-3-yl]-amide] | 5.52 |
| CC1(n2cc(C(=O)c3cncc(NC(=O)Cc4ccc(C(F)(F)F)c(F)c4)c3)c3cncnc32)COC1 [Example 573, 2-(3-Fluoro-4-trifluoromethyl-phenyl)-N-{5-[7-(3-methyl-oxetan-3-yl)-7H-pyrrolo[2,3-d]pyrimidine-5-carbonyl]-pyridin-3-yl}-acetamide] | 7.75 |
| CC(C)n1cc(C(=O)c2cncc(NC(=O)Cc3ccc(OC4CC4)cc3)c2)c2cncnc21 [Example 73, 2-[4-(cyclopropyloxy)phenyl]-N-{5-[(7-isopropyl-7H-pyrrolo[2,3-d]pyrimidin-5-yl)carbonyl]pyridin-3-yl}acetamide] | 6.55 |
| CCc1nc2cccnc2n1CC(=O)Nc1cncc(C(=O)c2cn(C(C)C)c3ncncc23)c1 [Example 138, 2-(2-ethyl-3H-imidazo[4,5-b]pyridin-3-yl)-N-{5-[(7-isopropyl-7H-pyrrolo[2,3-d]pyrimidin-5-yl)carbonyl]pyridin-3-yl}acetamide] | 5.08 |
| Cn1cc(C(=O)c2cncc(NC(=O)Nc3ccc(Cl)cc3)c2)c2cncnc21 [Example 293, 1-(4-chlorophenyl)-3-{5-[(7-methyl-7H-pyrrolo[2,3-d]pyrimidin-5-yl)carbonyl]pyridin-3-yl}urea] | 7.69 |
| CC(C)n1cc(C(=O)c2cncc(NC(=O)c3cc(C#N)ccn3)c2)c2cncnc21 [Example 480, 4-Cyano-pyridine-2-carboxylic acid [5-(7-isopropyl-7H-pyrrolo[2,3-d]pyrimidine-5-carbonyl)-pyridin-3-yl]-amide] | 6.27 |
| CC(C)(CO)n1cc(C(=O)c2cncc(NC(=O)Cn3cnc4ccccc4c3=O)c2)c2cnc(N)nc21 [Example 554, N-{5-[2-Amino-7-(2-hydroxy-1,1-dimethyl-ethyl)-7H-pyrrolo[2,3-d]pyrimidine-5-carbonyl]-pyridin-3-yl}-2-(4-oxo-4H-quinazolin-3-yl)-acetamide] | 6.57 |
| Cc1cc(C(=O)Nc2cncc(C(=O)c3cn(C(C)C)c4ncncc34)c2)n(CC(F)(F)F)n1 [Example 450, 5-Methyl-2-(2,2,2-trifluoro-ethyl)-2H-pyrazole-3-carboxylic acid [5-(7-isopropyl-7H-pyrrolo[2,3-d]pyrimidine-5-carbonyl)-pyridin-3-yl]-amide] | 5.50 |
| Cn1cc(C(=O)c2cncc(NC(=O)Cc3ccccc3)c2)c2cncnc21 [Example 179, N-{5-[(7-methyl-7H-pyrrolo[2,3-d]pyrimidin-5-yl)carbonyl]pyridin-3-yl}-2-phenylacetamide] | 5.51 |
| CC(C)n1cc(C(=O)c2cncc(NC(=O)Cc3ccc(C#N)cc3)c2)c2cnc(N)nc21 [Example 241, N-{5-[(2-amino-7-isopropyl-7H-pyrrolo[2,3-d]pyrimidin-5-yl)carbonyl]pyridin-3-yl}-2-(4-cyanophenyl)acetamide] | 7.34 |
| CC(C)n1cc(C(=O)c2cncc(NC(=O)c3ccn4cncc4c3)c2)c2cncnc21 [Example 406, Imidazo[1,5-a]pyridine-7-carboxylicacid [5-(7-isopropyl-7H-pyrrolo[2,3-d]pyrimidine-5-carbonyl)-pyridin-3-yl]-amide] | 5.58 |
